The values that follow come from patent US20140343001A1, “INDOLE DERIVATIVES INHIBITORS OF ENZYME LACTATE DEHYDROGENASE (LDH)” (Universitá di Pisa, priority 2011, published 2014).

The test system of one experiment is H1299. Description: Inhibition of tumor cell growth method (a), sulforhodamine B assay. Type of experiment: cell-based. As to conditions: Homo sapiens, NCI-H1299; H1299, 72 hours, SRB. The protocol:
(§1) The plates were incubated at 37° C. in an atmosphere composed of 95% air and 5% CO2 for 72 hours. The culture medium was then removed and the cells were fixed by addition of 50 μL of a 10% solution of trichloroacetic acid in water at 4° C. in each well. The plates were incubated at 4° C. for at least one hour, after which the colorimetric assay of sulforhodamine B (SRB) was carried out to determine the amount of biomass remaining in each well as described in previously developed methodologies [Vichai, V.; Kirtikara, K. Nat. Protoc. […] Briefly, the plates were washed several times with water and dried prior to the addition of 50 μL of a solution of dye sulforhodamine B (composed by 0.057% weight/weight of sulforhodamine B in 1% acetic acid) to each well. After 30 minutes of incubation, the unbound dye was removed by washing six times with 1% acetic acid. […] After an incubation period of 30 minutes, the absorbance in each well was read at a wavelength of 510 nm in a microplate reader. The cells treated only with vehicle consisting of a 1% solution of DMSO (vehicle) were used as control of 100% of live cells in the biomass and the wells incubated with the vehicle alone (without cells) were used to determine the baseline (0%) of live biomass. The IC50 values were calculated using the software SoftMax Pro (Molecular Devices, Sunnyvale, Calif.).

The test system of another experiment is H226. The experiment is described as above. The settings on record: Homo sapiens, NCI-H226; H226, 72 hours, SRB. Type of experiment: cell-based. The procedure: as §1
The test system of another experiment is HeLa. The experiment is described as above. The settings on record: Homo sapiens, 72 hours, SRB. Type of experiment: cell-based. The procedure:
as §1

The subject of another experiment is IGROV-1. The description is as above. Type of experiment: cell-based. The settings on record: Homo sapiens; IGROV-1, 72 hours, SRB. The protocol:
as §1

In a further experiment the test system is MCF-7. The description is as above. As to conditions: Homo sapiens, MCF7; MCF-7, 72 hours, SRB. The class given is cell-based. The procedure:
as §1

A further experiment deals with A549 cells. Description: Inhibition of tumor cell growth method (b), CellTiter-Glo. Type of experiment: cell-based. The settings on record: Homo sapiens, A549, 72 h. From the text: (§2) CellTiter-Glo® Luminescent Cell Viability Assay (Promega) is a homogeneous method of determining the number of viable cells in culture based on quantitation of the present ATP, which indicates the presence of metabolically active cells. The homogeneous assay procedure involves addition of a single reagent (CellTiter-Glo® Reagent) directly to the cells, which leads to cell lysis and generation of a luminescent signal proportional to the amount of the ATP and the number of cells present in culture. The assay relies on the properties of a proprietary thermostable luciferase (Ultra-Glo® recombinant luciferase), which generates a luminescent signal.
(§3) After 72 h, a volume of CellTiter-Glo® Reagent equal to the volume of cell culture medium was added. The content was mixed for 2 min to induce cell lysis. The luminescence was recorded after further 10 min at RT in order to obtain a stable luminescent signal.
(§4) The IC50 was calculated using GraphPad Software.
On the technique in general: In ATP-based viability assays light output follows the ATP content of the culture.

In the next experiment the test system is H1975. The description is as above. Type of experiment: cell-based. The settings on record: Homo sapiens, NCI-H1975, H1975, 72 h.
From the text: as §2, §3, §4

The next experiment has as its system HeLa cells. Nature of the experiment: Determination of cellular production of lactate (GC/MS). The class given is cell-based. As to conditions: 8 hours, concentrations from 50 to 200 μM, comparable or superior to 2-DeoxGlu at 10 mM.
In a further experiment the target is T1, hLDH5 (LDH-A) (Homo sapiens, UniProt P00338).
T1 construct: purchased LEEBIO (USA)
Nature of the experiment: Enzyme inhibition of human lactate dehydrogenase isoform 5. The class given is biochemical. The settings on record: ranges of values; 37° C., pH 7.4; read-out: inhibitory activity against hLDH5 (Ki).

As to `O=C(O)c1cc2c(C(F)(F)F)cc(-c3ccccc3)cc2n1O` [1-hydroxy-6-phenyl-4-trifluoromethyl-1H-indol-2-carboxylic acid, reference compound], the IC50 with H1299 was found to be 141 µM; with H226, 121 µM; in the experiment on HeLa, 44 µM; in the experiment on IGROV-1, 123 µM; in the experiment on MCF-7 it was 124 µM; in the experiment on A549 cells, 60 µM. In the experiment with H1975, this molecule gave an IC50 of 57 µM.
On to `CCOC(=O)c1cc2c(C(F)(F)F)cc(-c3ccccc3)cc2n1O` [Example 1, ethyl 1-hydroxy-6-phenyl-4-(trifluoromethyl)-1H-indole-2-carboxylate], for which, in the experiment on HeLa cells, the “reduction of cellular production of lactate” value (“reduction” below) is given as “reduce effectively cellular production of lactate”. Further, the IC50 in the experiment with H1299 was less than 40 µM; with H226, less than 26 µM; with HeLa, less than 17 µM; in the experiment on IGROV-1, less than 31 µM; with MCF-7 it was less than 35 µM; in the experiment on A549 cells, not above 31 µM. For the same molecule, in the experiment on H1975, the IC50 is not above 31 µM. The inhibition constant Ki at hLDH5 (LDH-A) lay in the range of 1 to 10 µM.
Regarding `COC(=O)c1cc2c(C(F)(F)F)cc(-c3ccccc3)cc2n1O[C@@H]1O[C@H](CO)[C@@H](O)[C@H](O)[C@H]1O` [Example 3, methyl 6-phenyl-1-(β-D-glucopyranosyl)oxy-4-(trifluoromethyl)-1H-indole-2-carboxylate], the “reduction” value in the experiment with HeLa cells is on record as “reduce effectively cellular production of lactate”. In addition, the half-inhibitory concentration (IC50) in the experiment on H1299 is less than 40 µM; in the experiment with H226 it was less than 26 µM; in the experiment with HeLa, less than 17 µM; in the experiment on IGROV-1 it was less than 31 µM; in the experiment with MCF-7, less than 35 µM; with A549 cells, not above 31 µM. Besides, the half-inhibitory concentration (IC50) in the experiment on H1975 is not above 31 µM.
For `COC(=O)c1cc2c(C(F)(F)F)cc(-c3ccc(Cl)cc3Cl)cc2n1O` [Example 8, methyl 6-(2,4-dichlorophenyl)-1-hydroxy-4-(trifluoromethyl)-1H-indole-2-carboxylate], in the experiment with HeLa cells, the “reduction” value is “reduce effectively cellular production of lactate”. The half-inhibitory concentration (IC50) was less than 15 µM with HeLa, less than 17 µM in the experiment with MCF-7, not above 31 µM with A549 cells and not above 31 µM in the experiment on H1975. At hLDH5 (LDH-A), the inhibitory constant (Ki) lay within 1 to 10 µM.

For orientation: IC50 means the point on the concentration scale where inhibition reaches its midpoint. By Ki is commonly meant a measure of affinity in units of concentration, obtained from inhibition or displacement.
